Experimental data published in patent US20130196000A1, “COMBINATION THERAPY INCLUDING ISOPHO[…], ANALOGS, OR SALTS THEREOF” (ZIOPHARM ONCOLOGY, INC., priority 2012, published 2013).

Assay: Multicenter phase Ib open-label dose-escalation study of IPM-tris plus carboplatin/etoposide (PaCE): safety, DLT and MTD
Format: in vivo, human
Experimental: A multicenter phase I, open-label, dose-escalation study assessing the safety and efficacy of IPM-tris in combination with carboplatin (C) and etoposide (E) (PaCE regimen) in SCLC and in other cancers in which C+E is considered appropriate was conducted. Tumor responses were assessed by RECIST 1.1 and relevant tumor markers.
To be eligible, each subject met each of the following criteria: (i) age >18 years; (ii) subject with documentation of a malignancy scheduled to receive etoposide and carboplatin therapy (including, but not limited to testicular cancer, thymoma, ovarian cancer, osteosarcoma, non-small cell lung cancer, and small cell lung cancer); (iii) ECOG Performance Status of 0 or 1; (iv) adequate bone marrow, liver, and renal function, as assessed by the following laboratory requirements conducted within 14 days prior to dosing; and (v) subjects for whom there is no curative standard therapy.
IPM tris(hydroxymethyl)methylammonium salt (IPM-tris) was given by intravenous (IV) infusion over approximately 30 minutes on days 1, 2, and 3 of each 21 day cycle. Each IPM-tris infusion to a subject was completed within 1 hour (and not more than 90 minutes) of dose preparation in the IV bag. Etoposide was given by IV infusion over approximately 60 minutes on days 1, 2, and 3 of each 21 day cycle. Carboplatin was given by IV infusion over approximately 30 minutes on day 1 of each 21 day cycle.
Each vial of IPM-tris was reconstituted with 14.6% sodium chloride for Injection, to a final concentration of 50.0 mg per mL. If the 14.6% sodium chloride diluent was not available, sites used 5.0%, 5.7%, 8.5%, or 0.9% sodium chloride for injection as the reconstitution diluent according to the same reconstitution instructions. Other standard sodium chloride solutions commercially available in other countries can be used to reconstituted IPM-tris. The IV infusion of IPM-tris was completed within 2.5 hours of reconstitution in the vial.
The doses of IPM-tris, etoposide, and carboplatin for each subject were calculated by the pharmacist based on the dose level and the subject's body surface area (BSA) on the first day of each cycle. BSA was calculated using their Institutional guidelines for calculating BSA or, the calculation for BSA by the Mosteller formula was used (note: SQRT=square root): […]
The maximum tolerable dose (MTD) of IPM-tris when administered in combination with etoposide and carboplatin at fixed doses (90 mg/m^2 and AUC 4, respectively) was determined An additional dose cohort was also evaluated using an escalated dose level of etoposide (100 mg/m^2) in combination with the IPM-tris MTD and carboplatin (AUC 4). Once the recommended doses were determined, this combination regimen was further studied in subjects with small cell lung cancer.

Structure (SMILES): NC(CO)(CO)CO.O=P(O)(NCCCl)NCCCl [IPM-tris, IPM tris(hydroxymethyl)methylammonium salt]
- patients with dose limiting toxicity (neutropenic fever) (at 150 mg/m^2 of IPM-tris): one
- maximum tolerated dose of IPM-tris (in combination with etoposide 90 mg/m^2 and carboplatin AUC 4 (Cohort 2), IV days 1, 2, 3 of 21 day cycle): **Based on dose escalation cohorts completed prior to Amendment 6, the maximum tolerated dose of IPM-tris was determined to be 130 mg/m^2 when administered in combination with etoposide 90 mg/m^2 and carboplatin AUC 4 (Cohort 2).
- maximum tolerated dose of IPM-tris (in combination with etoposide 100 mg/m^2 and carboplatin AUC 4): 130 mg/m^2
- IPM-tris dosage found to result in DLT (in combination with etoposide and carboplatin): 150 mg/m^2/day
